Holding throughout (type): protein assay
In assay [1] the target is T1, Alpha-1,2-mannosidase (BT_3990) (Bacteroides thetaiotaomicron) (UniProt Q8A0N1).
T1 sequence (whole entry): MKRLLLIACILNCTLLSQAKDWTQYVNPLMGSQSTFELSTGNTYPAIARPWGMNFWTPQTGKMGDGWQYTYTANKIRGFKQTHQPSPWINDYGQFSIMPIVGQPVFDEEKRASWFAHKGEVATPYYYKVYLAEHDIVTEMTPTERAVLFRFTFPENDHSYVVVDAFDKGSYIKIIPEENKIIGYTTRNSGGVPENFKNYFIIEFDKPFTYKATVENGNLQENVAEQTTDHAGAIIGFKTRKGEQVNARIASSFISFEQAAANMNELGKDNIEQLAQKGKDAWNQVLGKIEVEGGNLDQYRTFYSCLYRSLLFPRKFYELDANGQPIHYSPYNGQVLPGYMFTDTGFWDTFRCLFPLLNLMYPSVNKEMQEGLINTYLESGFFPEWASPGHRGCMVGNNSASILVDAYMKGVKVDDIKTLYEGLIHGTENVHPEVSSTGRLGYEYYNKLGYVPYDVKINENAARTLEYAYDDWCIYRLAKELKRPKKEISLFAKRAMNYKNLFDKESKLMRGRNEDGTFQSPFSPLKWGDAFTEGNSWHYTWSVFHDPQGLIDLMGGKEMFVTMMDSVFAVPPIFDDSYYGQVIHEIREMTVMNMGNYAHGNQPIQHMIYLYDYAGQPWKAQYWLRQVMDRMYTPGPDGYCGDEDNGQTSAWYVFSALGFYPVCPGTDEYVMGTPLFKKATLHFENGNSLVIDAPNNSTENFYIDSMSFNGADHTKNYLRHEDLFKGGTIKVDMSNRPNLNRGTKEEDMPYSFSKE
The experiment in a line: Activity of Bacteroides thetaiotaomicron GH92 alpha-mannosidase GH92 alpha-mannosidase 3990 assessed as mannose release at 1 mM after 16 hrs by HPLC relative to untreated control after 16 hrs by HPLC.

Assay [2] addresses T2, Alpha-1,2-mannosidase (BT_3965) (Bacteroides thetaiotaomicron) (UniProt Q8A0Q6).
T2 sequence (whole entry): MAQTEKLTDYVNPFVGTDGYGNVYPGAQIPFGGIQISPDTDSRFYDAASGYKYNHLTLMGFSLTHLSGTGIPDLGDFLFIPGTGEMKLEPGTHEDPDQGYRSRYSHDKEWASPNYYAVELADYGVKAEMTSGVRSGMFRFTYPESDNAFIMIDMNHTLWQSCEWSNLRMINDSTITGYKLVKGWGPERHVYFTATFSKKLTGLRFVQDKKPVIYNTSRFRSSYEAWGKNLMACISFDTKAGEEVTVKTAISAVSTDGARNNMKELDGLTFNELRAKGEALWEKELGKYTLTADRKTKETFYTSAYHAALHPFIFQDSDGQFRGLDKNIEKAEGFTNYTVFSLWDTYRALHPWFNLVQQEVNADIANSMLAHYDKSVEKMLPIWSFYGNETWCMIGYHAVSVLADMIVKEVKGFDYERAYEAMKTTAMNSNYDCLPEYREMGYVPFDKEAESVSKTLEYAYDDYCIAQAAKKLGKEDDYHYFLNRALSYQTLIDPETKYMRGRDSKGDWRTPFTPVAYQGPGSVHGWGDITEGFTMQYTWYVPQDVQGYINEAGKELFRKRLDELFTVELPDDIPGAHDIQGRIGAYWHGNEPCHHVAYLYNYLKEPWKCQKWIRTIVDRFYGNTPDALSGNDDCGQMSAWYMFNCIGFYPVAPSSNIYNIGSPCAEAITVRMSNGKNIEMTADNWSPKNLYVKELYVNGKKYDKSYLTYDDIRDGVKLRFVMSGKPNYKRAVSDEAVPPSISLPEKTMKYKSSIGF
Briefly: Activity of Bacteroides thetaiotaomicron GH92 alpha-mannosidase GH92 alpha-mannosidase 3965 assessed as mannose release at 1 mM after 16 hrs by HPLC relative to untreated control after 16 hrs by HPLC.

In assay [3] the target is T3, Alpha-1,2-mannosidase (BT_2948) (Bacteroides thetaiotaomicron) (UniProt Q8A3K6).
T3 sequence (whole entry): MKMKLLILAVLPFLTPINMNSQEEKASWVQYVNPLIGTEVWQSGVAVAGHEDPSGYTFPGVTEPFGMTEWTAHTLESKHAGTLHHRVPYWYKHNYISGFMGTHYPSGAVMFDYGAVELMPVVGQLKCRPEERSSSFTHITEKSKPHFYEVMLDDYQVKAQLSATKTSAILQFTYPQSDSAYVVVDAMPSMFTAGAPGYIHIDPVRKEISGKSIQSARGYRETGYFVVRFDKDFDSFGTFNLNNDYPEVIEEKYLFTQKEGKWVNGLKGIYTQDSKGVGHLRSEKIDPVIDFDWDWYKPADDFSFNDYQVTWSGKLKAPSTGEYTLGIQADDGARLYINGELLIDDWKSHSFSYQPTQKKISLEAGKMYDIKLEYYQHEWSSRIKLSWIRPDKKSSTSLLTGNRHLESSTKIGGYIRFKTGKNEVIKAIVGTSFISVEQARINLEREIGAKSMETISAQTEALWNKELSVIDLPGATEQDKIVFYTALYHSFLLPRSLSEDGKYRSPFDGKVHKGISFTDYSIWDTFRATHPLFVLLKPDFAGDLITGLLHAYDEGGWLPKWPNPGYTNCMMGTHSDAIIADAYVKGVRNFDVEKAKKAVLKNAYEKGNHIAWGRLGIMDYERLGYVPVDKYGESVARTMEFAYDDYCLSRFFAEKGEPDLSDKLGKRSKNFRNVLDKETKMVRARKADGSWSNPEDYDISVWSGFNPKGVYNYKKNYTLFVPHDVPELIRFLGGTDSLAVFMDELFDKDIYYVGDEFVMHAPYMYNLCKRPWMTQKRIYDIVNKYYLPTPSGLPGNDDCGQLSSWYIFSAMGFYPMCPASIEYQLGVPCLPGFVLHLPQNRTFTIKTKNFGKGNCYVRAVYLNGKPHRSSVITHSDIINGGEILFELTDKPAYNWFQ
The experiment in a line: Activity of Bacteroides thetaiotaomicron GH92 alpha-mannosidase GH92 alpha-mannosidase 2948 assessed as mannose release at 1 mM after 16 hrs by HPLC relative to untreated control after 16 hrs by HPLC.

Activity calls are given as the source filed them. The calls are words filed in the database; no cut-off is given here.

As to `OC[C@H]1O[C@H](O[C@H]2[C@H](O)[C@H](O)[C@@H](O)O[C@@H]2CO)[C@@H](O)[C@@H](O)[C@@H]1O`, the Activity in assay [1] worked out at 0.022%; in assay [2] it was 100%. The outcome in assay [3] was inactive.
On to `OC[C@H]1O[C@H](O[C@H]2[C@@H](O)[C@H](O)[C@@H](CO)O[C@@H]2O)[C@@H](O)[C@@H](O)[C@@H]1O`, for which the Activity in assay [1] was found to be 100%; in assay [2], 0.27%. For the same compound, the result in assay [3] was inactive.
For `OC[C@H]1O[C@H](OC[C@H]2O[C@H](O)[C@@H](O)[C@@H](O)[C@@H]2O)[C@@H](O)[C@@H](O)[C@@H]1O` the same measures were “inactive”, 0.64% and “inactive”.
In the same order, the values of `OC[C@H]1O[C@H](O[C@@H]2[C@H](O)[C@@H](O)O[C@H](CO)[C@H]2O)[C@@H](O)[C@@H](O)[C@@H]1O` are 0.036%, 0.09% and “inactive”.

Values taken from ChEMBL document CHEMBL1250451, “Mechanistic insights into a Ca2+-dependent family of alpha-mannosidases in a human gut symbiont” (Nat Chem Biol, 2010).
